Patent US20260151375A1, “CDK2 INHIBITORS AND METHODS OF USING THE SAME” (Cedilla Therapeutics, Inc., priority 2022, published 2026)
Counter-ions that a name gives are not always drawn.

Tests used:
CDK2/Cyclin E1 [1] = target: T1, CDK2/Cyclin E1 (Homo sapiens, UniProt P24941); test: Caliper Assay (LabChip EZ Reader mobility shift assay), inhibition of CDK2/Cyclin E1 activity; type: biochemical; conditions: 2.5 nM CDK2/Cyclin E1(14-475), 100 μM ATP, 30 min preincubation; read-out: Caliper Assay (CDK2/CCNE1): IC50
T1 construct: purchased 14-475
Outline: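 Compounds were preincubated 30 min with CDK2/Cyclin E1(14-475), then run for 100 min with 2.5 nM enzyme, 100 μM ATP and 1.5 μM 5-FAM-QSPKKG peptide in HEPES pH 7.5 (final). Reactions were EDTA-stopped and substrate-to-product conversion read by mobility shift. IC50 came from a four-parameter fit.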

CDK2/Cyclin E1 [2] = target: T1, CDK2/Cyclin E1; test: ADPGLO (CDK2/E1-37 C), ADP-Glo Luminescent Kinase Assay; type: biochemical; conditions: 0.18 nM CDK2/Cyclin E1, 100 μM ATP, Histone H1, 37° C.
Outline: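 Human CDK2/Cyclin E1 preincubated with inhibitor 60 min at 37 °C, then reacted 90 min at 37 °C with final 0.18 nM enzyme, 100 μM ATP, 1.5 μM Histone H1 in HEPES pH 7.5 buffer. ADP formed read by ADP-Glo luminescence; IC50 from four-parameter fit.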

Kuramochi cells = test: IncuCyte Kuramochi Assay (cell proliferation); type: cell-based; conditions: 72 h, Kuramochi cells labeled with mApple-H2B, cell count, read-out: IncuCyte - Kuramochi RB-WT: IC50
Outline: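 Cells imaged at 0 and 72 h after compound treatment (10 points, ½ log dilution, 20 μM top), with fluorescent nuclei counted. Fold change in count was normalized to DMSO wells and fitted to dose-response curves to give GI50.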

[3] = tested on: mouse models of polycystic kidney disease; conditions: Bukanov et al., Nature 2006; cited from earlier work

SMILES: O=C(c1nccnc1O)N1CC(c2nnc(C(F)(F)c3ccc(Cl)c(Cl)c3)o2)C2(CN(CC3CCCO3)C2)C1 (stereo not shown) [I-135]
- IC50 (CDK2/Cyclin E1 [1]): > 100 µM
- IC50 (CDK2/Cyclin E1 [2]): > 100 µM
- IC50 (Kuramochi cells): > 10 µM

SMILES: O=C(c1[nH]ncc1C(F)(F)F)N1CC(c2nnc(C(F)(F)c3ccc(Cl)c(Cl)c3)o2)C2(CN(CC3CCCO3)C2)C1 (stereo not shown) [I-136]
- IC50 (CDK2/Cyclin E1 [1]): > 100 µM
- IC50 (CDK2/Cyclin E1 [2]): > 100 µM
- IC50 (Kuramochi cells): > 10 µM

SMILES: COc1cn[nH]c1C(=O)N1CC(c2nnc(C(F)(F)c3ccc(Cl)c(Cl)c3)o2)C2(C1)CN(C(=O)[C@H]1CC1(F)F)C2 (stereo partly drawn) [I-137, (8-(5-((3,4-dichlorophenyl)difluoromethyl)-1,3,4-oxadiazol-2-yl)-2-((R)-2,2-difluorocyclopropane-1-carbonyl)-2,6-diazaspiro[3.4]octan-6-yl)(4-methoxy-1H-pyrazol-5-yl)methanone]
- IC50 (CDK2/Cyclin E1 [1]): 1 to 10 µM
- IC50 (CDK2/Cyclin E1 [2]): > 10 µM
- IC50 (Kuramochi cells): > 10 µM

SMILES: COc1cc(C(=O)N2CC(c3nnc(C(F)(F)c4ccc(Cl)c(Cl)c4)o3)C3(C2)CN(C(=O)[C@H]2CC2(F)F)C3)[nH]n1 (stereo partly shown) [I-138]
- IC50 (CDK2/Cyclin E1 [1]): > 10 µM
- IC50 (CDK2/Cyclin E1 [2]): > 100 µM
- IC50 (Kuramochi cells): > 10 µM

SMILES: O=C(c1ccn[nH]1)N1CC(c2nnc(C(F)(F)c3ccc(Cl)c(Cl)c3)o2)C2(CN(CC3CCCO3)C2)C1 (stereo not shown) [I-139, (8-(5-((3,4-dichlorophenyl)difluoromethyl)-1,3,4-oxadiazol-2-yl)-2-((tetrahydrofuran-2-yl)methyl)-2,6-diazaspiro[3.4]octan-6-yl)(1H-pyrazol-5-yl)methanone formate]
- IC50 (CDK2/Cyclin E1 [1]): > 100 µM
- IC50 (CDK2/Cyclin E1 [2]): > 100 µM
- IC50 (Kuramochi cells): > 10 µM

SMILES: O=C(c1cnc(O)cn1)N1CC(c2nnc(C(F)(F)c3ccc(Cl)c(Cl)c3)o2)C2(CN(CC3CCCO3)C2)C1 (stereo not shown) [I-140]
- IC50 (CDK2/Cyclin E1 [1]): > 10 µM
- IC50 (CDK2/Cyclin E1 [2]): > 10 µM
- IC50 (Kuramochi cells): > 10 µM

SMILES: O=C(c1cn[nH]c1C(F)(F)F)N1CC(c2nnc(C(F)(F)c3ccc(Cl)c(Cl)c3)o2)C2(CN(CC3CCCO3)C2)C1 (stereo not shown) [I-141]
- IC50 (CDK2/Cyclin E1 [1]): > 100 µM
- IC50 (CDK2/Cyclin E1 [2]): > 10 µM
- IC50 (Kuramochi cells): > 10 µM

SMILES: O=C(c1cc(C(F)(F)F)n[nH]1)N1CC(c2nnc(C(F)(F)c3ccc(Cl)c(Cl)c3)o2)C2(CN(CC3CCCO3)C2)C1 (stereo not shown) [I-142]
- IC50 (CDK2/Cyclin E1 [1]): > 100 µM
- IC50 (CDK2/Cyclin E1 [2]): > 10 µM
- IC50 (Kuramochi cells): > 10 µM

SMILES: O=C(c1cn[nH]c1)N1CC(c2nnc(C(F)(F)c3ccc(Cl)c(Cl)c3)o2)C2(CN(CC3CCCO3)C2)C1 (stereo not shown) [I-143]
- IC50 (CDK2/Cyclin E1 [1]): > 100 µM
- IC50 (CDK2/Cyclin E1 [2]): > 10 µM
- IC50 (Kuramochi cells): > 10 µM

SMILES: CC[C@H](CO)Nc1nc(NCc2ccccc2)c2ncn(C(C)C)c2n1 [roscovitine]
- arrest of cystic kidney disease [3]: effective arrest of cystic kidney disease
